Values of other authors as cited in US20110091544A1 (priority 2009, published 2011).
Where two headings read alike, the source gives them in different places.

How the values were obtained:
[1] = system: dental outpatients; conditions: in vivo
[2] = system: healthy young subjects and healthy elderly subjects; conditions: 125 mcg and 250 mcg
[3] = system: healthy children; conditions: oral 0.025 mg/kg, children aged 6 to 9 years
[4] = system: 61-70 year old patients scheduled for ophthalmic surgery; conditions: 200 mcg sublingual
[5] = not given; remark: listed apart in the source
[6] = 250 mcg or 375 mcg sublingual
[7] = system: patients; conditions: 7.5 mg; at 30 and 60 min after administration
[8] = system: acute seizures; conditions: nasal
[9] = system: children scheduled for day surgery
[10] = not given; remark: listed apart in the source
[11] = 0.2 mg/kg; 30 min after premedication; children
[12] = system: pediatric patients undergoing outpatient surgery; conditions: in vivo

Compound: Cc1nnc2n1-c1ccc(Cl)cc1C(c1ccccc1Cl)=NC2 [triazolam, 8-chloro-6-(o-chlorophenyl)-1-methyl-4H-s-triazolo-[4,3-alpha][1,4]benzodiazepine]
- higher bioavailability [1]: 28%
- anxiety and pain at 15 minutes intraoperatively ([1]; po): significantly less anxiety and pain
- sedation and psychomotor performance, healthy elderly versus young persons at the same dose [2]: greater degree of sedation and greater impairment of psychomotor performance
- elimination half-life (500 mcg oral): 3.7 h
- mean total area under the curve (500 mcg oral): 22.6 ng·h/mL
- peak plasma concentration (500 mcg oral): 3.9 ng/mL
- time of peak concentration (500 mcg oral): 1.25 h
- elimination half-life (500 mcg sublingual): 4.1 h
- mean total area under the curve (500 mcg sublingual): 28.9 ng·h/mL
- peak plasma concentration (500 mcg sublingual): 4.7 ng/mL
- time of peak concentration (500 mcg sublingual): 1.22 h
- bioavailability greater than oral (500 mcg sublingual versus oral, average): 28%
- time to peak plasma concentration [3]: 74 ± 25 min
- peak plasma concentration ([3]; mean+/−SD): 8.5 ± 3.0 ng/mL
- depth of sedation compared with 10 mg oral diazepam [4]: deeper sedation
- time at which sedation developed after administration [4]: 60 to 90 min
- increase in Cmax ([5]; elderly versus young adults): 50%
- Tmax ([5]; no change elderly versus young adults): 0.9 h
- plasma half-life ([5]; orally administered): 1.5 to 5.5 h
- higher peak plasma level ([5]; sublingual compared with oral administration): 20%
- Cmax, range ([6]; children): 4.0 to 8.2 ng/mL
- Tmax, range ([6]; children): 0.5 to 2 h
- elimination half-life, range ([6]; children): 0.85 to 2.33 h
- Cmax ([6]; children 64-98 months old, mean+/−SD): 4.9 ± 2.0 ng/mL
- Tmax ([6]; children, mean+/−SD): 1.25 ± 0.533 h
- elimination half-life ([6]; children, mean+/−SD): 1.52 ± 0.533 h

Compound: Cc1ncc2n1-c1ccc(Cl)cc1C(c1ccccc1F)=NC2 [midazolam, 8-chloro-6-(2-fluorophenyl)-1-methyl-4H-imidazo[1,5-a][1,4]benzodiazepine]
- sedation scores, sublingual group versus oral group [7]: higher
- treatment of acute seizures [8]: effective
- children showing satisfactory sedation at 15 min after administration ([9]; 0.25 mg/kg sublingual, P=0.02): 28%
- children showing satisfactory sedation at 15 min after administration ([9]; 0.5 mg/kg sublingual, P<0.001): 52%
- children showing satisfactory sedation at 15 min after administration ([9]; 0.75 mg/kg sublingual, P<0.001): 64%
- maximum plasma concentrations ([10]; 15 mg oral dose): 70 to 120 ng/mL
- time to maximum plasma concentrations ([10]; 15 mg oral dose): within one hour
- prolongation of plasma half-life ([10]; adults greater than 60 years): up to 3 times
- plasma half-life ([10]; orally administered): 1.5 to 5 h
- oral bioavailability ([10]; with a broad range): approximately 36%
- midazolam level, sublingual group versus nasal group [11]: statistically significantly higher
- children who had not previously cried who cried on administration [12]: 71%
- patients who experienced nasal irritation [12]: 20 patients
